Key:
Test in all cases: biochemical
Set-up in all cases: KINOMEscan active-site competition binding panel (468 kinase assays), per cent of control at 1000 nM
Conditions in all cases: KINOMEscan per cent of control (binding competition); read-out: Percent Control
[1] = molecular target: T1, RSK1(Kin.Dom.1-N-terminal) (Homo sapiens, UniProt Q15418)
T1 construct: gene RPS6KA1; Kin.Dom.1-N-terminal
Description: (§1) Figure S7 / Percent Control

CDK2 = CDK2 (Homo sapiens, UniProt P24941)
Description: as §1

SNRK = SNRK (Homo sapiens, UniProt Q9NRH2)
Description: as §1

GAK = GAK (Homo sapiens, UniProt O14976)
Description: as §1

[2] = molecular target: T2, RPS6KA4(Kin.Dom.2-C-terminal) (Homo sapiens, UniProt O75676)
T2 construct: Kin.Dom.2-C-terminal
Description: as §1

TGFBR2 = TGFBR2 (Homo sapiens, UniProt P37173)
Description: as §1

NIK = molecular target: T3, NIK (Homo sapiens, UniProt Q99558)
T3 construct: gene MAP3K14
Description: as §1

BTK = BTK (Homo sapiens, UniProt Q06187)
Description: as §1

LZK = molecular target: T4, LZK (Homo sapiens, UniProt O43283)
T4 construct: gene MAP3K13
Description: as §1

ACVR1B = ACVR1B (Homo sapiens, UniProt P36896)
Description: as §1

GRK1 = GRK1 (Homo sapiens, UniProt Q15835)
Description: as §1

RIOK3 = RIOK3 (Homo sapiens, UniProt O14730)
Description: as §1

HIPK1 = HIPK1 (Homo sapiens, UniProt Q86Z02)
Description: as §1

TRKA = molecular target: T5, TRKA (Homo sapiens, UniProt P04629)
T5 construct: gene NTRK1
Description: as §1

OSR1 = molecular target: T6, OSR1 (Homo sapiens, UniProt O95747)
T6 construct: gene OXSR1
Description: as §1

NEK1 = NEK1 (Homo sapiens, UniProt Q96PY6)
Description: as §1

NEK4 = NEK4 (Homo sapiens, UniProt P51957)
Description: as §1

RIOK1 = RIOK1 (Homo sapiens, UniProt Q9BRS2)
Description: as §1

PRKCE = PRKCE (Homo sapiens, UniProt Q02156)
Description: as §1

CLK3 = CLK3 (Homo sapiens, UniProt P49761)
Description: as §1

STK33 = STK33 (Homo sapiens, UniProt Q9BYT3)
Description: as §1

PIP5K2C = molecular target: T7, PIP5K2C (Homo sapiens, UniProt Q8TBX8)
T7 construct: gene PIP4K2C
Description: as §1

DAPK3 = DAPK3 (Homo sapiens, UniProt O43293)
Description: as §1

PDGFRB = PDGFRB (Homo sapiens, UniProt P09619)
Description: as §1

SRPK2 = SRPK2 (Homo sapiens, UniProt P78362)
Description: as §1

T2 sequence (O75676 whole entry): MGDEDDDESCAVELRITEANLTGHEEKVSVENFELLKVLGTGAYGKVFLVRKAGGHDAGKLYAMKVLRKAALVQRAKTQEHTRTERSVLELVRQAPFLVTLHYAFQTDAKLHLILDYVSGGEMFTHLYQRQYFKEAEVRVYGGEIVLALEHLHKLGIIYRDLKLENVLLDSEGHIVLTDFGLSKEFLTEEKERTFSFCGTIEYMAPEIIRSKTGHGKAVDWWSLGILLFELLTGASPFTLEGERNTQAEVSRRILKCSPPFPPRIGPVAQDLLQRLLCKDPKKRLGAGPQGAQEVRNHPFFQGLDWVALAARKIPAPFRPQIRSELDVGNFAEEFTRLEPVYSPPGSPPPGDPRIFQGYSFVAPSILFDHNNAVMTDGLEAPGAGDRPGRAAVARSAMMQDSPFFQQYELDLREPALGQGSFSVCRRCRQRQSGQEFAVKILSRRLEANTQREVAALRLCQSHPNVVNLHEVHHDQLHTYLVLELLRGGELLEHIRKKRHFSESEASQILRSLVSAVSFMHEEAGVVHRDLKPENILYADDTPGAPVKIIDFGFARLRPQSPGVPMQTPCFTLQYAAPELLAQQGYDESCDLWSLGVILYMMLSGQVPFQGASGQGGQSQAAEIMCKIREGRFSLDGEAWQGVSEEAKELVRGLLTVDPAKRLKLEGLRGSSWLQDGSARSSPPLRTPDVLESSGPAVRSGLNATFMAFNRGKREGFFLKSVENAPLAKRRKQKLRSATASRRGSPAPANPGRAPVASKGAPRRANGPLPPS
Chain of NEK1 (Q96PY6 whole entry): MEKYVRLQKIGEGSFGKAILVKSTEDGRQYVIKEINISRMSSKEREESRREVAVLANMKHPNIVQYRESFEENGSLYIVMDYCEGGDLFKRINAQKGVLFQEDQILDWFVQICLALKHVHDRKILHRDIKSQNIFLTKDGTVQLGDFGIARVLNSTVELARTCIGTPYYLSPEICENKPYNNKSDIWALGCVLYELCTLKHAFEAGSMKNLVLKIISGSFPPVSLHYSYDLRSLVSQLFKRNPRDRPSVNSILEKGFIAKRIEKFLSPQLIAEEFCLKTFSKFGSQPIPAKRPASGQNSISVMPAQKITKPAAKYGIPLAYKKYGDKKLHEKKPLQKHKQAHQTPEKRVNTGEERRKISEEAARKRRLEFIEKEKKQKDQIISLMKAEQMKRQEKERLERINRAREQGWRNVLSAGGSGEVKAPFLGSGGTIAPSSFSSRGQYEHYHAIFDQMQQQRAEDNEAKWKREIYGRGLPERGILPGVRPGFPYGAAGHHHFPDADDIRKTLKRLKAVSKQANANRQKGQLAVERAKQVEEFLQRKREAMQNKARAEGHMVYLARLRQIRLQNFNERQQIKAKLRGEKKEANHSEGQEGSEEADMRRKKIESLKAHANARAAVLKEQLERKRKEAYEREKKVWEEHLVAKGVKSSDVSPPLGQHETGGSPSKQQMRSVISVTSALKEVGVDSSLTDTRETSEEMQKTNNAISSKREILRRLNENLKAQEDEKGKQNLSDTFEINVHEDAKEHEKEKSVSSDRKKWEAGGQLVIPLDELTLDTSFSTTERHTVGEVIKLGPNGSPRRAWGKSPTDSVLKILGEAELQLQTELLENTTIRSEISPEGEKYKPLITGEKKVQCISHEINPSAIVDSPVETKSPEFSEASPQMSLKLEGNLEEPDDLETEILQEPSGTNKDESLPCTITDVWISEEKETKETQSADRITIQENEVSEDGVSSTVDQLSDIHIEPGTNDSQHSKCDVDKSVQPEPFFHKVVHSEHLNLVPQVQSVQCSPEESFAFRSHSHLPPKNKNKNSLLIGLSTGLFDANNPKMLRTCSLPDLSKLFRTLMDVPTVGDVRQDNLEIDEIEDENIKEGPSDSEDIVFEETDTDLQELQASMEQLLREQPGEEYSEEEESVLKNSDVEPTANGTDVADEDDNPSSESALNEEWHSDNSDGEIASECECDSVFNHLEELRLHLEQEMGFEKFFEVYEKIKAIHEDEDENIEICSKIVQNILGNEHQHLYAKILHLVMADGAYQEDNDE
Chain of SRPK2 (P78362 whole entry): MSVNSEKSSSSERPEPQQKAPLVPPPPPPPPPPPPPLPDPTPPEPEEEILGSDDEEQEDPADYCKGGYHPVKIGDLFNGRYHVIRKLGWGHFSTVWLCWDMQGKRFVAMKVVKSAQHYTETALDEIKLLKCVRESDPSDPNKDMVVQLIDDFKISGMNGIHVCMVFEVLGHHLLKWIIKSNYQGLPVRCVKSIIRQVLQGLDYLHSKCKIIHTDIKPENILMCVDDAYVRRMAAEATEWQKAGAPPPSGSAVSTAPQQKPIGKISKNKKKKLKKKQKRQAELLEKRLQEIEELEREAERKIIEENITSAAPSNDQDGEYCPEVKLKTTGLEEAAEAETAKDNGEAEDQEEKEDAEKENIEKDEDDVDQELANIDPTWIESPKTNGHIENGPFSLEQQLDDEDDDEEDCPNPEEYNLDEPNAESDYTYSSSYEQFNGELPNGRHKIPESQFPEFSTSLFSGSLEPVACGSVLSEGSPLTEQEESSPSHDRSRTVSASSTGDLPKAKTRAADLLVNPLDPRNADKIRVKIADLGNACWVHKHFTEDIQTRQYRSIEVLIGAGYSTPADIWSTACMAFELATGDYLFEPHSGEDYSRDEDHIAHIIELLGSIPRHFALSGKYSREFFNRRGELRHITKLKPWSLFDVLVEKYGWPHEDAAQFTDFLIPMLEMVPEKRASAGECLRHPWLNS
Chain of CLK3 (P49761 whole entry): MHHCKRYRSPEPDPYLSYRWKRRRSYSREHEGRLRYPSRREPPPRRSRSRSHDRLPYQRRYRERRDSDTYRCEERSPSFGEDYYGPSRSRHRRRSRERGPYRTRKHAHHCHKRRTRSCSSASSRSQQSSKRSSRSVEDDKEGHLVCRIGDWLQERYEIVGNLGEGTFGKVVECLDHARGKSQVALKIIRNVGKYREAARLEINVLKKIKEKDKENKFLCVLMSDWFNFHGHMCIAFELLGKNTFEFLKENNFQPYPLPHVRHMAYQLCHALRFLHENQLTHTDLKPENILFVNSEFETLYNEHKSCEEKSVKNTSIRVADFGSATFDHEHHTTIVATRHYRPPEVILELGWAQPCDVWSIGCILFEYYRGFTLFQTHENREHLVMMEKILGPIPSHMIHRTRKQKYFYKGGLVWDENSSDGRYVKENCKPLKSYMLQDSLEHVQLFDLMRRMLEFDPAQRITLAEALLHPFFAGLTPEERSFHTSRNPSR
T6 sequence (O95747 whole entry): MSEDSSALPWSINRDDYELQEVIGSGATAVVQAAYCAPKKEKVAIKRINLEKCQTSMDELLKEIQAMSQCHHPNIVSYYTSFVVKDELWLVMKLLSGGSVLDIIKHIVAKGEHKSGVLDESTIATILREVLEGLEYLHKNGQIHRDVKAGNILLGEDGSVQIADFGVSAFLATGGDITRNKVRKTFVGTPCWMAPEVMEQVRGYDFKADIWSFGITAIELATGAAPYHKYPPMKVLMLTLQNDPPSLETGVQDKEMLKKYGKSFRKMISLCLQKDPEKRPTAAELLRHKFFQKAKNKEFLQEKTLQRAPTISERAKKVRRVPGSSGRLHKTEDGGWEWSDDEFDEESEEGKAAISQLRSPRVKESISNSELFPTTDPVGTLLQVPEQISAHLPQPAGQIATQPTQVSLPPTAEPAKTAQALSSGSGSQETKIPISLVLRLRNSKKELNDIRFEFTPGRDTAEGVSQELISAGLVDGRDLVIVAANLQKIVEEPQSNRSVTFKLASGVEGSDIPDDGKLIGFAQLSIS
Chain of RIOK3 (O14730 whole entry): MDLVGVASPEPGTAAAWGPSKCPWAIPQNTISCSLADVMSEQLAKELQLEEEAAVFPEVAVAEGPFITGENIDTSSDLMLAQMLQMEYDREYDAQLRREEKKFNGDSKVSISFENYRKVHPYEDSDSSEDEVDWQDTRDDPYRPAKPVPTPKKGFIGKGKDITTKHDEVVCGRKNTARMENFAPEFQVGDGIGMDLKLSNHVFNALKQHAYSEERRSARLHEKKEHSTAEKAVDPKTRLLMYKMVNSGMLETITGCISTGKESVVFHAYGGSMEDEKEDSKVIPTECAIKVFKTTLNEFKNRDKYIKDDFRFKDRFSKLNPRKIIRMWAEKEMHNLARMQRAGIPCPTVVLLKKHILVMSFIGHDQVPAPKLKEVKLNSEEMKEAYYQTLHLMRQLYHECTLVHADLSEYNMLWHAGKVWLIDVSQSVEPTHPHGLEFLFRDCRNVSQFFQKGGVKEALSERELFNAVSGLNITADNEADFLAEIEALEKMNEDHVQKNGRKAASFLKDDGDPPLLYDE
T5 sequence (P04629 whole entry): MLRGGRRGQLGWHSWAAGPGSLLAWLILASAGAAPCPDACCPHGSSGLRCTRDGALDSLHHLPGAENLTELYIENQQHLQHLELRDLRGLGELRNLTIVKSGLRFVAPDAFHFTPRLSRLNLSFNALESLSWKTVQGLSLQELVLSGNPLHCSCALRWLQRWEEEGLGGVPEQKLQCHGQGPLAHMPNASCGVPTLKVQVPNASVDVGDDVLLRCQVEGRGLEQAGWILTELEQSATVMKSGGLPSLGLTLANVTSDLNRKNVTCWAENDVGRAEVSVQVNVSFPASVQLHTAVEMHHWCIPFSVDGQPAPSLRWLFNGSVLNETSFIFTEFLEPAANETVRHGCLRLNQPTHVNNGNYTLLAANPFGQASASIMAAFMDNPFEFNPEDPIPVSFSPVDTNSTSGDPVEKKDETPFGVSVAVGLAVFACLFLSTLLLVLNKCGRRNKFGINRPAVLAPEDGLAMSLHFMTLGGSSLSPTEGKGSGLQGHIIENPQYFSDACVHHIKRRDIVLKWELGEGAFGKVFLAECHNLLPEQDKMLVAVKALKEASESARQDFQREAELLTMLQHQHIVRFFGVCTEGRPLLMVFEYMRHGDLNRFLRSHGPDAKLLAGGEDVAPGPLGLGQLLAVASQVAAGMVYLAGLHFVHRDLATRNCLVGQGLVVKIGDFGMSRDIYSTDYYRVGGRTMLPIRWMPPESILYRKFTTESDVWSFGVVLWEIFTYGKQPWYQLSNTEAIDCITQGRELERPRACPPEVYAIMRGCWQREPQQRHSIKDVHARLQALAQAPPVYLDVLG

## Cn1c(=O)[nH]c2ccc(-c3cccc(C(=O)NC4CCn5ccnc5C4)c3)cc21 (stereo not shown) [Z36-MP5]
[1]
  remaining binding at 1 µM: 93%
CDK2
  remaining binding at 1 µM: 91%
SNRK
  remaining binding at 1 µM: 78%
GAK
  remaining binding at 1 µM: 71%
[2]
  remaining binding at 1 µM: 59%
TGFBR2
  remaining binding at 1 µM: 94%
NIK
  remaining binding at 1 µM: 46%
BTK
  remaining binding at 1 µM: 89%
LZK
  remaining binding at 1 µM: 63%
ACVR1B
  remaining binding at 1 µM: 94%
GRK1
  remaining binding at 1 µM: 29%
RIOK3
  remaining binding at 1 µM: 100%
HIPK1
  remaining binding at 1 µM: 100%
TRKA
  remaining binding at 1 µM: 67%
OSR1
  remaining binding at 1 µM: 73%
NEK1
  remaining binding at 1 µM: 81%
NEK4
  remaining binding at 1 µM: 69%
RIOK1
  remaining binding at 1 µM: 47%
PRKCE
  remaining binding at 1 µM: 100%
CLK3
  remaining binding at 1 µM: 91%
STK33
  remaining binding at 1 µM: 92%
PIP5K2C
  remaining binding at 1 µM: 80%
DAPK3
  remaining binding at 1 µM: 89%
PDGFRB
  remaining binding at 1 µM: 93%
SRPK2
  remaining binding at 1 µM: 63%
